In ChEMBL document CHEMBL1201862, “PubChem BioAssay data set” (2004):
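Exposure lasted 48 hours, with cells grown in 96-well plates and compounds tested at five concentrations. Abbreviation: GI50, concentration required for 50% inhibition of growth.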 The source made the active and inactive calls. No stated cut-off is given here; in the data, active = GI50 up to about 1.1 µM and inactive = higher.

Columns and labels:
Test in all cases: NCI-60 cell line screen, 48 h
786-0 = test system: 786-0
A498 = test system: A498
A549 = test system: A549
ACHN = test system: ACHN
BT-549 = test system: BT-549
CAKI-1 = test system: CAKI-1
CCRF-CEM = test system: CCRF-CEM
COLO 205 = test system: COLO 205
DU-145 = test system: DU-145
EKVX = test system: EKVX
HCC 2998 = test system: HCC 2998
HCT-116 = test system: HCT-116
HCT-15 = test system: HCT-15
HL-60 = test system: HL-60
HOP-62 = test system: HOP-62
HOP-92 = test system: HOP-92
HT-29 = test system: HT-29
Hs-578T = test system: Hs-578T
IGROV-1 = test system: IGROV-1
K562 = test system: K562
KM12 = test system: KM12
LOX IMVI = test system: LOX IMVI
M14 = test system: M14
MCF7 = test system: MCF7
MDA-MB-231 = test system: MDA-MB-231
MDA-MB-435 = test system: MDA-MB-435
MDA-N = test system: MDA-N
MOLT-4 = test system: MOLT-4
Malme-3M = test system: Malme-3M
NCI-H226 = test system: NCI-H226
NCI-H23 = test system: NCI-H23
NCI-H460 = test system: NCI-H460
NCI-H522 = test system: NCI-H522
NCI/ADR-RES = test system: NCI/ADR-RES
OVCAR-3 = test system: OVCAR-3
OVCAR-4 = test system: OVCAR-4
OVCAR-5 = test system: OVCAR-5
OVCAR-8 = test system: OVCAR-8
PC-3 = test system: PC-3
RPMI-8226 = test system: RPMI-8226
RXF 393 = test system: RXF 393
SF-268 = test system: SF-268
SF-295 = test system: SF-295
SF-539 = test system: SF-539
SK-MEL-28 = test system: SK-MEL-28
SK-MEL-2 = test system: SK-MEL-2
SK-MEL-5 = test system: SK-MEL-5
SN12C = test system: SN12C
SNB-19 = test system: SNB-19
SNB-75 = test system: SNB-75
SW-620 = test system: SW-620
T47D = test system: T47D
TK-10 = test system: TK-10
U-251 = test system: U-251
UACC-257 = test system: UACC-257
UACC-62 = test system: UACC-62
UO-31 = test system: UO-31
SK-OV-3 = test system: SK-OV-3
SR = test system: SR

NCCNCCCCCCNC(=O)c1cccc2cc3ccccc3nc12
GI50 (786-0): 1.36 µM (inactive)
GI50 (A498): 2.43 µM (inactive)
GI50 (A549): 1.7 µM (inactive)
GI50 (ACHN): 2.28 µM (inactive)
GI50 (BT-549): 11.4 µM (inactive)
GI50 (CAKI-1): 4.78 µM (inactive)
GI50 (CCRF-CEM): 1.03 µM (active)
GI50 (COLO 205): 2.75 µM (inactive)
GI50 (DU-145): 0.632 µM (active)
GI50 (EKVX): 8.59 µM (inactive)
GI50 (HCC 2998): 2.14 µM (inactive)
GI50 (HCT-116): 2.15 µM (inactive)
GI50 (HCT-15): 12.6 µM
GI50 (HL-60): 1.39 µM (inactive)
GI50 (HOP-62): 2 µM (inactive)
GI50 (HOP-92): 2.24 µM (inactive)
GI50 (HT-29): 1.59 µM (inactive)
GI50 (Hs-578T): 1.88 µM (inactive)
GI50 (IGROV-1): 3.9 µM (inactive)
GI50 (K562): 2.06 µM (inactive)
GI50 (KM12): 2 µM (inactive)
GI50 (LOX IMVI): 1.47 µM (inactive)
GI50 (M14): 1.92 µM (inactive)
GI50 (MCF7): 1.1 µM (active)
GI50 (MDA-MB-231): 2.34 µM (inactive)
GI50 (MDA-MB-435): 3.59 µM (inactive)
GI50 (MDA-N): 2.7 µM (inactive)
GI50 (MOLT-4): 0.838 µM (active)
GI50 (Malme-3M): 3.94 µM (inactive)
GI50 (NCI-H226): 1.95 µM (inactive)
GI50 (NCI-H23): 2.07 µM (inactive)
GI50 (NCI-H460): 0.871 µM (active)
GI50 (NCI-H522): 1.42 µM (inactive)
GI50 (NCI/ADR-RES): 17.9 µM (inactive)
GI50 (OVCAR-3): 2.51 µM (inactive)
GI50 (OVCAR-4): 2.02 µM (inactive)
GI50 (OVCAR-5): 4.02 µM (inactive)
GI50 (OVCAR-8): 2.03 µM (inactive)
GI50 (PC-3): 2.99 µM (inactive)
GI50 (RPMI-8226): 2.01 µM (inactive)
GI50 (RXF 393): 3.95 µM (inactive)
GI50 (SF-268): 2.72 µM (inactive)
GI50 (SF-295): 3.6 µM (inactive)
GI50 (SF-539): 1.93 µM (inactive)
GI50 (SK-MEL-28): 5.65 µM (inactive)
GI50 (SK-MEL-2): 2.87 µM (inactive)
GI50 (SK-MEL-5): 3.61 µM (inactive)
GI50 (SN12C): 2.42 µM (inactive)
GI50 (SNB-19): 2.67 µM (inactive)
GI50 (SNB-75): 3.94 µM (inactive)
GI50 (SW-620): 1.49 µM (inactive)
GI50 (T47D): 5.13 µM (inactive)
GI50 (TK-10): 8.51 µM (inactive)
GI50 (U-251): 1.64 µM (inactive)
GI50 (UACC-257): 6.1 µM (inactive)
GI50 (UACC-62): 2.01 µM (inactive)
GI50 (UO-31): 5.66 µM (inactive)

CCN(CC)c1ccc2cc(C(=O)Nc3ccccc3)c(=N)oc2c1
GI50 (786-0): > 100 µM (inactive)
GI50 (A549): > 100 µM (inactive)
GI50 (ACHN): > 100 µM (inactive)
GI50 (BT-549): > 100 µM (inactive)
GI50 (CAKI-1): > 100 µM (inactive)
GI50 (CCRF-CEM): > 100 µM (inactive)
GI50 (COLO 205): > 100 µM (inactive)
GI50 (DU-145): > 100 µM (inactive)
GI50 (EKVX): > 100 µM (inactive)
GI50 (HCC 2998): > 100 µM (inactive)
GI50 (HCT-116): > 100 µM (inactive)
GI50 (HCT-15): > 100 µM
GI50 (HL-60): > 100 µM (inactive)
GI50 (HOP-62): > 100 µM (inactive)
GI50 (HOP-92): > 100 µM (inactive)
GI50 (HT-29): > 100 µM (inactive)
GI50 (Hs-578T): > 100 µM (inactive)
GI50 (IGROV-1): > 100 µM (inactive)
GI50 (K562): > 100 µM (inactive)
GI50 (KM12): > 100 µM (inactive)
GI50 (LOX IMVI): > 100 µM (inactive)
GI50 (M14): > 100 µM (inactive)
GI50 (MCF7): > 100 µM (inactive)
GI50 (MDA-MB-231): > 100 µM (inactive)
GI50 (MDA-MB-435): > 100 µM (inactive)
GI50 (MDA-N): > 100 µM (inactive)
GI50 (MOLT-4): > 100 µM (inactive)
GI50 (Malme-3M): > 100 µM (inactive)
GI50 (NCI-H226): > 100 µM (inactive)
GI50 (NCI-H460): > 100 µM (inactive)
GI50 (NCI/ADR-RES): > 100 µM (inactive)
GI50 (OVCAR-4): > 100 µM (inactive)
GI50 (OVCAR-5): > 100 µM (inactive)
GI50 (OVCAR-8): > 100 µM (inactive)
GI50 (PC-3): > 100 µM (inactive)
GI50 (RPMI-8226): > 100 µM (inactive)
GI50 (RXF 393): > 100 µM (inactive)
GI50 (SF-268): > 100 µM (inactive)
GI50 (SF-295): > 100 µM (inactive)
GI50 (SF-539): > 100 µM (inactive)
GI50 (SK-MEL-28): > 100 µM (inactive)
GI50 (SK-MEL-2): > 100 µM (inactive)
GI50 (SK-MEL-5): > 100 µM (inactive)
GI50 (SK-OV-3): > 100 µM (inactive)
GI50 (SN12C): > 100 µM (inactive)
GI50 (SNB-19): > 100 µM (inactive)
GI50 (SNB-75): > 100 µM (inactive)
GI50 (SR): > 100 µM (inactive)
GI50 (SW-620): > 100 µM (inactive)
GI50 (T47D): > 100 µM (inactive)
GI50 (TK-10): > 100 µM (inactive)
GI50 (U-251): > 100 µM (inactive)
GI50 (UACC-257): > 100 µM (inactive)
GI50 (UACC-62): > 100 µM (inactive)
GI50 (UO-31): > 100 µM (inactive)

CC(=O)OCC1OC(n2c(-c3ccccc3)c(/N=N/c3ccccc3)c(C)c(C#N)c2=S)C(OC(C)=O)C(OC(C)=O)C1OC(C)=O (stereo unspecified)
GI50 (786-0): > 100 µM (inactive)
GI50 (A549): > 100 µM (inactive)
GI50 (ACHN): > 100 µM (inactive)
GI50 (BT-549): > 100 µM (inactive)
GI50 (CAKI-1): > 100 µM (inactive)
GI50 (CCRF-CEM): > 100 µM (inactive)
GI50 (COLO 205): > 100 µM (inactive)
GI50 (DU-145): > 100 µM (inactive)
GI50 (HCC 2998): > 100 µM (inactive)
GI50 (HCT-116): > 100 µM (inactive)
GI50 (HCT-15): > 100 µM
GI50 (HL-60): > 100 µM (inactive)
GI50 (HOP-62): > 100 µM (inactive)
GI50 (HOP-92): 28.4 µM (inactive)
GI50 (HT-29): > 100 µM (inactive)
GI50 (Hs-578T): > 100 µM (inactive)
GI50 (IGROV-1): > 100 µM (inactive)
GI50 (K562): > 100 µM (inactive)
GI50 (KM12): > 100 µM (inactive)
GI50 (LOX IMVI): > 100 µM (inactive)
GI50 (M14): > 100 µM (inactive)
GI50 (MCF7): > 100 µM (inactive)
GI50 (MDA-MB-231): > 100 µM (inactive)
GI50 (MDA-MB-435): > 100 µM (inactive)
GI50 (MDA-N): > 100 µM (inactive)
GI50 (MOLT-4): > 100 µM (inactive)
GI50 (Malme-3M): > 100 µM (inactive)
GI50 (NCI-H23): > 100 µM (inactive)
GI50 (NCI-H460): > 100 µM (inactive)
GI50 (NCI/ADR-RES): > 100 µM (inactive)
GI50 (OVCAR-3): > 100 µM (inactive)
GI50 (OVCAR-4): > 100 µM (inactive)
GI50 (OVCAR-5): > 100 µM (inactive)
GI50 (PC-3): > 100 µM (inactive)
GI50 (RPMI-8226): > 100 µM (inactive)
GI50 (RXF 393): > 100 µM (inactive)
GI50 (SF-268): > 100 µM (inactive)
GI50 (SF-295): > 100 µM (inactive)
GI50 (SF-539): > 100 µM (inactive)
GI50 (SK-MEL-28): > 100 µM (inactive)
GI50 (SK-MEL-2): > 100 µM (inactive)
GI50 (SK-MEL-5): > 100 µM (inactive)
GI50 (SK-OV-3): > 100 µM (inactive)
GI50 (SN12C): > 100 µM (inactive)
GI50 (SNB-19): > 100 µM (inactive)
GI50 (SNB-75): > 100 µM (inactive)
GI50 (SR): > 100 µM (inactive)
GI50 (SW-620): > 100 µM (inactive)
GI50 (T47D): > 100 µM (inactive)
GI50 (TK-10): > 100 µM (inactive)
GI50 (U-251): > 100 µM (inactive)
GI50 (UACC-257): 12.3 µM (inactive)
GI50 (UACC-62): > 100 µM (inactive)
GI50 (UO-31): > 100 µM (inactive)
